Assay results taken from ChEMBL document CHEMBL5247607, “Design, synthesis and biological evaluation of a new series of arylidene indanones as small molecules for targeted therapy of non-small cell lung carcinoma and prostate cancer” (Eur J Med Chem, 2022).
Active and inactive are the calls of the source. The calls are words filed in the database; no cut-off is given here.

Tests used:
[1] = Cytotoxicity against human hTERT-HPNE cells assessed as inhibition of cell growth incubated for 24 hrs by MTT assay; type: toxicity, cell-based
PANC-1 [2] = assay: Induction of mitochondrial membrane potential loss in human PANC-1 cells assessed as depolarized cells at IC50 incubated for 24 hrs by JC-1 staining based flow cytometry assay (reference value: 5%); type: functional
[3] = Selectivity index, ratio of IC50 for cytotoxicity against human CCD 19Lu cells to IC50 for cytotoxicity against human A549 cells; type: toxicity, cell-based; settings: CCD 19Lu cells versus A549 cells, read-out: Ratio IC50
[4] = Selectivity index, ratio of IC50 for cytotoxicity against human hTERT-HPNE cells to IC50 for cytotoxicity against human PANC-1 cells; type: toxicity, cell-based; settings: hTERT-HPNE cells versus PANC-1 cells, read-out: Ratio IC50
PANC-1 [5] = assay: Induction of apoptosis in human PANC-1 cells assessed as early apoptotic cells at IC50 incubated for 24 hrs by annexin V-FITC/PI staining based flow cytometry analysis (reference value: 0%); type: functional
PANC-1 [6] = assay: Induction of morphological changes in human PANC-1 cells assessed as chromatin condensation at 6.51 uM incubated for 24 hrs by acridine orange/ethidium bromide staining based fluorescence microscopic analysis; type: functional, cell-based
PANC-1 [7] = assay: Induction of apoptosis in human PANC-1 cells assessed as late apoptotic cells at IC50 incubated for 24 hrs by annexin V-FITC/PI staining based flow cytometry analysis (reference value: 0.2%); type: functional
PANC-1 [8] = assay: Induction of apoptosis in human PANC-1 cells assessed as total apoptotic cells at IC50 incubated for 24 hrs by annexin V-FITC/PI staining based flow cytometry analysis relative to control; type: functional
PANC-1 [9] = assay: Induction of mitochondrial membrane potential loss in human PANC-1 cells assessed as polarized cells at IC50 incubated for 24 hrs by JC-1 staining based flow cytometry assay (reference value: 92%); type: functional
[10] = target: Procathepsin L (Homo sapiens) (UniProt P07711); assay: Inhibition of cathepsin L (unknown origin) at 100 uM
Procathepsin L (Homo sapiens), sequence (P07711 114-333 limits assumed): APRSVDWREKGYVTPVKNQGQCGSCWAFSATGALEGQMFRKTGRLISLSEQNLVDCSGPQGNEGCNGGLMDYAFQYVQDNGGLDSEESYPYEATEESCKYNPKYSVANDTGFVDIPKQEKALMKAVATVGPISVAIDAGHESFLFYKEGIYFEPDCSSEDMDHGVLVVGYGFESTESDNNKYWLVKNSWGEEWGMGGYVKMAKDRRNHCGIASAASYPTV

PANC-1 [11] = assay: Induction of morphological changes in human PANC-1 cells assessed as formation of apoptotic bodies at 6.51 uM incubated for 24 hrs by acridine orange/ethidium bromide staining based fluorescence microscopic analysis; type: functional, cell-based
PANC-1 [12] = assay: Induction of apoptosis in human PANC-1 cells assessed as activation of caspase-3 by measuring caspase-3 negative cells at IC50 incubated for 24 hrs by flow cytometry analysis (reference value: 98.5 %); type: functional
[13] = target: Cathepsin D (Homo sapiens) (UniProt P07339); assay: Inhibition of cathepsin D (unknown origin) at 100 uM relative to control
Cathepsin D (Homo sapiens), sequence (P07339 65-162 limits assumed): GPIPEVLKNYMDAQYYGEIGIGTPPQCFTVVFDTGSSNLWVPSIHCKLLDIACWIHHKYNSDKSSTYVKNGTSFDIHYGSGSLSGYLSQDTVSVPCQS
Cathepsin D (Homo sapiens), sequence (P07339 169-412 limits assumed): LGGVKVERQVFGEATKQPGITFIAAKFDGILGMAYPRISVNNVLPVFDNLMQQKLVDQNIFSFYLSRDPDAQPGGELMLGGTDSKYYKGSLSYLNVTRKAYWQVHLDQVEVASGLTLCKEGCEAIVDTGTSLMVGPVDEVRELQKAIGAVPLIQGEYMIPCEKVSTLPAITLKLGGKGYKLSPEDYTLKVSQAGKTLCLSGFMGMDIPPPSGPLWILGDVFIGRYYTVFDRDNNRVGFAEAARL

PANC-1 [14] = assay: Induction of apoptosis in human PANC-1 cells assessed as activation of caspase-3 by measuring caspase-3 positive cells at IC50 incubated for 24 hrs by flow cytometry analysis (reference value: 1.8%); type: functional
PANC-1 [15] = assay: Induction of morphological changes in human PANC-1 cells assessed as cell shrinkage at 6.51 uM incubated for 24 hrs by acridine orange/ethidium bromide staining based fluorescence microscopic analysis; type: functional
PANC-1 [16] = assay: Cytotoxicity against human PANC-1 cells assessed as inhibition of cell growth incubated for 24 hrs by MTT assay; type: functional, cell-based; settings: PANC-1, 24 h
PANC-1 [17] = assay: Induction of apoptosis in human PANC-1 cells assessed as total cell viability at IC50 incubated for 24 hrs by annexin V-FITC/PI staining based flow cytometry analysis (reference value: 84.4%); type: functional
[18] = Cytotoxicity against human CCD 19Lu cells assessed as inhibition of cell growth incubated for 24 hrs by MTT assay; type: toxicity, cell-based
PANC-1 [19] = assay: Inhibition of DNA synthesis in human PANC-1 cells at 6.51 uM incubated for 24 hrs by BrdU incorporation assay relative to control; type: functional
A549 [20] = assay: Cytotoxicity against human A549 cells assessed as inhibition of cell growth incubated for 24 hrs by MTT assay; type: functional, cell-based; settings: A549, 24 h
A549 [21] = assay: Induction of apoptosis in human A549 cells assessed as total cell viability at IC50 incubated for 24 hrs by annexin V-FITC/PI staining based flow cytometry analysis (reference value: 85.6 %); type: functional
A549 [22] = assay: Induction of apoptosis in human A549 cells assessed as total apoptotic cells at IC50 incubated for 24 hrs by annexin V-FITC/PI staining based flow cytometry analysis relative to control; type: functional
A549 [23] = assay: Induction of apoptosis in human A549 cells assessed as increase in intracellular calcium level at 5.99 uM by Fluo-4-AM staining based flow cytometry analysis; type: functional, cell-based
A549 [24] = assay: Induction of apoptosis in human A549 cells assessed as late apoptotic cells at IC50 incubated for 24 hrs by annexin V-FITC/PI staining based flow cytometry analysis (reference value: 6.5 %); type: functional
A549 [25] = assay: Induction of morphological changes in human A549 cells assessed as cell shrinkage at 5.99 uM incubated for 24 hrs by acridine orange/ethidium bromide staining based fluorescence microscopic analysis; type: functional
A549 [26] = assay: Inhibition of DNA synthesis in human A549 cells at 5.99 uM incubated for 24 hrs by BrdU incorporation assay relative to control; type: functional
A549 [27] = assay: Induction of mitochondrial membrane potential loss in human A549 cells assessed as polarized cells at IC50 incubated for 24 hrs by JC-1 staining based flow cytometry assay (reference value: 90.6%); type: functional
A549 [28] = assay: Induction of apoptosis in human A549 cells assessed as activation of caspase-3 by measuring caspase-3 negative cells at IC50 incubated for 24 hrs by flow cytometry analysis (reference value: 91.1%); type: functional
PANC-1 [29] = assay: Inhibition of DNA synthesis in human PANC-1 cells at 5.99 uM incubated for 24 hrs by BrdU incorporation assay relative to control; type: functional
PANC-1 [30] = assay: Induction of morphological changes in human PANC-1 cells assessed as formation of apoptotic bodies at 5.99 uM incubated for 24 hrs by acridine orange/ethidium bromide staining based fluorescence microscopic analysis; type: functional, cell-based
A549 [31] = assay: Induction of apoptosis in human A549 cells assessed as early apoptotic cells at IC50 incubated for 24 hrs by annexin V-FITC/PI staining based flow cytometry analysis (reference value: 5.6%); type: functional
A549 [32] = assay: Induction of morphological changes in human A549 cells assessed as chromatin condensation at 5.99 uM incubated for 24 hrs by acridine orange/ethidium bromide staining based fluorescence microscopic analysis; type: functional, cell-based
PANC-1 [33] = assay: Induction of morphological changes in human PANC-1 cells assessed as cell shrinkage at 5.99 uM incubated for 24 hrs by acridine orange/ethidium bromide staining based fluorescence microscopic analysis; type: functional
A549 [34] = assay: Induction of apoptosis in human A549 cells assessed as activation of caspase-3 by measuring caspase-3 positive cells at IC50 incubated for 24 hrs by flow cytometry analysis (reference value: 8.4%); type: functional
A549 [35] = assay: Induction of morphological changes in human A549 cells assessed as formation of apoptotic bodies at 5.99 uM incubated for 24 hrs by acridine orange/ethidium bromide staining based fluorescence microscopic analysis; type: functional, cell-based
PANC-1 [36] = assay: Induction of morphological changes in human PANC-1 cells assessed as chromatin condensation at 5.99 uM incubated for 24 hrs by acridine orange/ethidium bromide staining based fluorescence microscopic analysis; type: functional, cell-based
A549 [37] = assay: Induction of mitochondrial membrane potential loss in human A549 cells assessed as depolarized cells at IC50 incubated for 24 hrs by JC-1 staining based flow cytometry assay (reference value: 6.9%); type: functional

CN(C)c1ccc(/C=C2\Cc3cc4c(cc3C2=O)OCO4)cc1
IC50 at 24 h [1]: > 1630 µM | Activity (PANC-1 [2]): 11% | selectivity ratio [3]: > 24.6 | selectivity ratio [4]: > 128 | Activity (PANC-1 [5]): 24.7% | Activity (PANC-1 [6]): Active | Activity (PANC-1 [7]): 15.9% | Activity (PANC-1 [8]): 40.6% | Activity (PANC-1 [9]): 83.9% | inhibition [10]: inactive | Activity (PANC-1 [11]): Active | Activity (PANC-1 [12]): 96.5% | inhibition [13]: 27.5% | Activity (PANC-1 [14]): 4.7% | Activity (PANC-1 [15]): Active | IC50 (PANC-1 [16]): < 12.7 µM | Activity (PANC-1 [17]): 50.4% | IC50 at 24 h [18]: > 1630 µM | inhibition at 6.51 µM (PANC-1 [19]): 16.9% | IC50 (A549 [20]): 66.2 µM

O=C1/C(=C/c2ccc(N3CCCC3)cc2)Cc2cc3c(cc21)OCO3
IC50 at 24 h [1]: > 1500 µM | Activity (A549 [21]): 12.5% | Activity (A549 [22]): 85.4% | Activity (A549 [23]): Active | Activity (PANC-1 [2]): 16.7% | Activity (A549 [24]): 20% | Activity (A549 [25]): Active | selectivity ratio [3]: > 5.25 | selectivity ratio [4]: > 128 | Activity (PANC-1 [5]): 0.6% | Activity (PANC-1 [7]): 3.4% | inhibition at 5.99 µM (A549 [26]): 4.41% | Activity (A549 [27]): 76.4% | Activity (A549 [28]): 92.5% | Activity (PANC-1 [9]): 82% | Activity (PANC-1 [12]): 89.6% | inhibition at 5.99 µM (PANC-1 [29]): 31% | inhibition [13]: 52.7% | Activity (PANC-1 [14]): 11.3% | Activity (PANC-1 [30]): Active | Activity (A549 [31]): 65.4% | Activity (A549 [32]): Active | Activity (PANC-1 [33]): Active | Activity (A549 [34]): 7.4% | IC50 (PANC-1 [16]): < 11.7 µM | Activity (PANC-1 [17]): 76.3% | IC50 at 24 h [18]: 61.5 µM | Activity (A549 [35]): Active | Activity (PANC-1 [36]): Active | Activity (A549 [37]): 65% | IC50 (A549 [20]): < 11.7 µM
